Experimental data from US5420343A, “Derivatives of aromatic cyclic alkylethers” (G. D. Searle & Co., priority 1994, dated 1995).

Tests used:
[1] = target: T1, human COX-II (Homo sapiens, UniProt P35354); assay: Human Enzyme Assay, COX-II (recombinant enzyme, PGE2 ELISA); type: biochemical; settings: 10 μM arachidonic acid, 10-20 min pre-incubation
T1 construct: made in house; host or cells: SF9 insect cells, recombinant baculovirus (pVL1393); coding fragment from Caymen Chemical, Ann Arbor, Mich
T1 sequence (P35354 18-604): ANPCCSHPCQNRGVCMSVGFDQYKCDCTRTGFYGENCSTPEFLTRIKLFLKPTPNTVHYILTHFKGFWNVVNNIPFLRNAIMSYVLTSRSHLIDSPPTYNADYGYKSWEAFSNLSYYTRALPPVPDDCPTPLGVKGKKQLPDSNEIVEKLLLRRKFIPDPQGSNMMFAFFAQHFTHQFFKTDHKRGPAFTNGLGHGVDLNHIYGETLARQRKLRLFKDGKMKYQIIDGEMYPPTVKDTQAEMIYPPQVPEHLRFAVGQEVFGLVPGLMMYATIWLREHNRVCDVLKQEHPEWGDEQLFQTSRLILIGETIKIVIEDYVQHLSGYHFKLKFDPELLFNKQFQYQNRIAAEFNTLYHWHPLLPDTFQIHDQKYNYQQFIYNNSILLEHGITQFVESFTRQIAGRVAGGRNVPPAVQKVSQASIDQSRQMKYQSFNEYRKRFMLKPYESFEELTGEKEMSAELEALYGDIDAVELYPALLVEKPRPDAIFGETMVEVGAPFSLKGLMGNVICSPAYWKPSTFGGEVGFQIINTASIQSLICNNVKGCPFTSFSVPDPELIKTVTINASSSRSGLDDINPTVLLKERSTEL
Description: (§1) The compounds of the invention are evaluated with respect to COX-I and COX-II activity in vitro using an enzyme based assay according to the following assay procedure.
(§2) A 2.0 kb fragment containing the coding region for either human or murine COX-I (Caymen Chemical, Ann Arbor, Mich.), or human or murine COX-II (Caymen Chemical, Ann Arbor, Mich.), was cloned into a BamH1 site of the baculovirus transfer vector pVL1393 (Invitrogen, Palo Alto, Calif.) to generate a baculovirus transfer vector. Recombinant baculoviruses were isolated by transfecting 4 μg of baculovirus transfer vector DNA into SF9 cells (2×10e8) (Invitrogen, Palo Alto, Calif.) along with 200 ng of linearized bacium by the phosphate method. See M. D. Summers et al., "A Manual of Methods for Baculovirus Vectors and Insect Cell Culture Procedure," TEXAS AGRICULTURE EXPERIMENTAL STATION BULLETIN, No. 1555 (1987), which is incorporated herein by reference. Recombinant viruses were purified by three rounds of plaque purification, and high titer (10e7-10e8 pfu/ml) stocks of virus were prepared. […]
(§3) COX activity was assayed as PGE2 formed/μg protein/time using an ELISA (Caymen Chemical, Ann Arbor, Mich.) to detect the prostaglandin E2 released. […] The PGE2 formed was measured by standard ELISA technology (Cayman Chemical, Ann Arbor, Mich.). […]

[2] = target: T2, cellular COX-II (Homo sapiens, UniProt P35354); assay: Cellular COX-II Assay (Cell Fibroblast Assay); type: cell-based; settings: IL-1 beta stimulated human fetal dermal fibroblasts; 20 μM arachidonic acid; PGE2 by ELISA
T2 construct: stimulated human fetal dermal fibroblasts (HFDF, derived from primary cell cultures); endogenous in cells; host or cells: human fetal dermal fibroblasts (HFDF), primary culture, stimulated overnight with IL-1 beta
T2 sequence (P35354 18-604): T1 sequence (P35354 18-604)
Description: The results for this assay, as well as for the next assay (COX-II Cell Fibroblast Assay) are expressed in terms of COX-I or II activity as an IC50 value (50% inhibitory concentration), as defined as the amount of prostaglandin E2 (PGE2) formed per protein per time in response to the enzyme substrate arachidonic acid.
The compounds of the invention are evaluated with respect to the inhibition of cellular COX-II in vitro according to the following Cellular COX-II Assay (Cell Fibroblast Assay).
Inhibition of cellular COX-II by test compounds is determined using stimulated human fetal dermal fibroblasts (HFDF, derived from primary cell cultures). […] Supernatants are collected and Prostaglandin E2 (PGE2) production is measured by an enzyme-linked immunosorbent assay (ELISA; antibodies produced by Cayman Chemical Company, Ann Arbor, Mich.). […]
The procedure uses information for indomethacin and the rest of the plate in defining the minimum and maximum response. […] For the other compounds, if a response is measured which is less than the response for the unstimulated wells, then this response may be considered to be another estimate of a minimal response. […]

[3] = target: T3, human COX-I (Homo sapiens, UniProt P23219); assay: Human Enzyme Assay, COX-I (recombinant enzyme, PGE2 ELISA); type: biochemical; settings: 10 μM arachidonic acid, 10-20 min pre-incubation
T3 construct: made in house; host or cells: SF9 insect cells, recombinant baculovirus (pVL1393); coding fragment from Caymen Chemical, Ann Arbor, Mich
T3 sequence (P23219 24-599): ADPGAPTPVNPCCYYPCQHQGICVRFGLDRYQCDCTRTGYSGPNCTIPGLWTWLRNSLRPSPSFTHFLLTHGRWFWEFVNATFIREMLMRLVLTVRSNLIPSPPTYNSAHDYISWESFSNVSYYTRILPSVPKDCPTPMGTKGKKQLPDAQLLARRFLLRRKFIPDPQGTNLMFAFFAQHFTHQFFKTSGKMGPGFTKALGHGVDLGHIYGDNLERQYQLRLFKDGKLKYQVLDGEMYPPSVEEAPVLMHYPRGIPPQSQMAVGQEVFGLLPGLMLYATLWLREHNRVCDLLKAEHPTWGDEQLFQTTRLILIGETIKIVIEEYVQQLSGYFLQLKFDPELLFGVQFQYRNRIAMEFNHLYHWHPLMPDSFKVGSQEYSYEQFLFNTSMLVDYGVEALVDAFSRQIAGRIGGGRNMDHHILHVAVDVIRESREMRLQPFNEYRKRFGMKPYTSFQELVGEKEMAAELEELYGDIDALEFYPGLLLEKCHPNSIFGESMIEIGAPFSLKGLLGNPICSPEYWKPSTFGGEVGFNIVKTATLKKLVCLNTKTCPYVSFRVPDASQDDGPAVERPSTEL
Description: as §1, §2, §3

[4] = Futaki et al., Gen. Pharmac. 24, 105 (1993); cited from earlier work
[5] = Futaki et al., Gen. Pharmac. 24, 105 (1993); cited from earlier work; remark: listed apart in the source
[6] = tested on: COX II enzyme; settings: E. Meade et al., J. Biol. Chem. 268, 6610 (1993); cited from earlier work

Row | IC50 [1] [nM] | IC50 [3] [µM] | SMILES | also measured
1 | > 100000 | > 100 | CC(C)(C)c1cc(C[C@@H]2CCC[C@H]2OCC(=O)O)cc(C(C)(C)C)c1 (relative stereo) [Example 8, (trans)-2-[[2-[3,5-bis(1,1-dimethylethyl) -phenylmethyl]cyclopentyl]oxy]acetic acid] | IC50 [2]: 2 nM
2 | 1340 | > 100 | CC(C)(C)c1cc(C[C@H]2CCC[C@H]2OCC(=O)O)cc(C(C)(C)C)c1 (relative stereo) [Example 7, (cis)-2-[[2-[3,5-bis(1,1-dimethylethyl) -phenylmethyl]cyclopentyl]oxy]-acetic acid] | 
3 |  |  | CS(=O)(=O)Nc1ccc([N+](=O)[O-])cc1OC1CCCCC1 [N-(2-cyclohexyloxy-4-nitrophenyl)methanesulfonamide] | anti-inflammatory activity [4]: anti-inflammatory; gastric side effects [5]: lacks gastric side effects
4 |  |  | COc1ccc2cc(CC(=O)O)ccc2c1 [6-methoxy-2-napthylacetic acid] | selective inhibition of COX II enzyme [6]: selectively inhibit the COX II enzyme
